Laboratory results as given in patent US11840528B2 (Hoffmann-La Roche Inc., priority 2018, dated 2023).

Assays:
h-GABA-A α5β3γ2 [1] = target: T1, h-GABA-A α5β3γ2 (Homo sapiens, UniProt P18507+P31644); test: [3H]flumazenil competition binding assay, membranes of HEK293 cells expressing GABAA receptors; details: displacement of [3H]-Flumazenil 0.5 nM, HEK293 cells expressing human receptors, mean of two determinations; Table 1
Summary of the method: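 Receptor source: human α5β3γ2 transiently transfected into HEK293 cells, membranes in pH 7.5 Krebs-tris. Filtration through GF/C, then scintillation counting.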

h-GABA-A α5β3γ2 [2] = target: T1, h-GABA-A α5β3γ2; test: Two-electrode voltage clamp electrophysiology in Xenopus laevis oocytes expressing GABAA receptors, modulation of GABA EC20 current; assay type: cell-based; parameters: host or cells: Xenopus laevis oocytes micro-injected with RNA transcripts of the subunits; details: Table 1; for Efficacy (GABA) %: % modulation of GABA EC20 = 100*(Fold increase-1); for Fold increase h-GABA-A α5β3γ2 oocyte: test compound at approx. 30 fold its Ki, GABA at EC20
Summary of the method: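 Modulation is reported as % of the GABA EC20 current, calculated as 100*(Fold increase−1) from the peak ratio between a second GABA response carrying compound (applied at roughly 30-fold Ki) and a preceding control response. Oocytes expressing human α5β3γ2 were clamped at −80 mV at room temperature, 3–5 days after injection.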

Row | Ki (h-GABA-A α5β3γ2 [1]) [nM] | Efficacy (GABA) % (h-GABA-A α5β3γ2 [2]) [%] | Fold increase h-GABA-A α5β3γ2 oocyte (h-GABA-A α5β3γ2 [2]) | Compound
1 | 7.4 | 43 | 1.43 | COC1CN(c2cnn(Cc3c(-c4ccc(Cl)cc4)noc3C)c(=O)c2)C1 [Example 160, 2-[[3-(4-chlorophenyl)-5-methyl-isoxazol-4-yl]methyl]-5-(3-methoxyazetidin-1-yl)pyridazin-3-one]
2 | 6 | 72 | 1.72 | Cc1ccc(-c2noc(C)c2Cn2ncc(N3CC(O)C3)cc2=O)cn1 [Example 105, 5-(3-hydroxyazetidin-1-yl)-2-[[5-methyl-3-(6-methyl-3-pyridyl)isoxazol-4-yl]methyl]pyridazin-3-one]
3 | 2.8 | 187 | 2.87 | Cc1ccc(-c2noc(C)c2Cn2ncc(N3CCN[C@H](C)C3)cc2=O)cn1 [Example 50, 2-[[5-methyl-3-(6-methyl-3-pyridyl)isoxazol-4-yl]methyl]-5-[(3R)-3-methylpiperazin-1-yl]pyridazin-3-one]
4 | 28.7 | 116 | 2.16 | Cc1ccc(-c2noc(C)c2Cn2ncc(-c3cnn(C4CC4)c3)cc2=O)cn1 [Example 152, 5-(1-cyclopropyl-1H-pyrazol-4-yl)-2-((5-methyl-3-(6-methylpyridin-3-yl)isoxazol-4-yl)methyl)pyridazin-3(2H)-one]
5 | 7.3 | 153 | 2.53 | Cc1ccc(-c2noc(C)c2Cn2ncc(N3CC(Oc4cccc(F)c4)C3)cc2=O)cn1 [Example 127, 5-[3-(3-fluorophenoxy)azetidin-1-yl]-2-[[5-methyl-3-(6-methyl-3-pyridyl)isoxazol-4-yl]methyl]pyridazin-3-one]
6 | 52.7 | 94 | 1.94 | Cc1onc(-c2ccc(Cl)nc2)c1Cn1ncc(N2CC3(CCCO3)C2)cc1=O [Example 209, 2-((3-(6-chloropyridin-3-yl)-5-methylisoxazol-4-yl)methyl)-5-(5-oxa-2-azaspiro[3.4]octan-2-yl)pyridazin-3(2H)-one]
7 | 0.6 | 136 | 2.36 | Cc1ccc(-c2noc(C)c2Cn2ncc(N3C[C@H]4CC[C@@H](C3)O4)cc2=O)cn1 [Example 28, 2-[[5-methyl-3-(6-methyl-3-pyridyl)isoxazol-4-yl]methyl]-5-[(1R,5S)-8-oxa-3-azabicyclo[3.2.1]octan-3-yl]pyridazin-3-one]
8 | 34 | 113 | 2.13 | Cc1ccc(-c2noc(C)c2Cn2ncc(-c3cnn(CC(C)C)c3)cc2=O)cn1 [Example 172, 5-(1-isobutylpyrazol-4-yl)-2-[[5-methyl-3-(6-methyl-3-pyridyl)isoxazol-4-yl]methyl]pyridazin-3-one]
9 | 3 | 80 | 1.8 | Cc1ccc(-c2noc(C)c2Cn2ncc(N3CC4(C[C@@H](OC(F)F)CO4)C3)cc2=O)nn1 [Example 242, 5-[(7R)-7-(difluoromethoxy)-5-oxa-2-azaspiro[3.4]octan-2-yl]-2-[[5-methyl-3-(6-methylpyridazin-3-yl)isoxazol-4-yl]methyl]pyridazin-3-one]
10 | 18.9 | 209 | 3.09 | Cc1ccc(-c2noc(C(F)F)c2Cn2ncc(N3C[C@@H](C)O[C@@H](C)C3)cc2=O)cn1 [Example 182, 2-((5-(Difluoromethyl)-3-(6-methylpyridin-3-yl)isoxazol-4-yl)methyl)-5-((2S,6R)-2,6-dimethylmorpholino)pyridazin-3(2H)-one]
11 | 30.8 | 115 | 2.15 | Cc1ccc(-c2noc(C)c2Cn2ncc(N3CC4(CCCO4)C3)cc2=O)cn1 [Example 95, 2-[[5-methyl-3-(6-methyl-3-pyridyl)isoxazol-4-yl]methyl]-5-(5-oxa-2-azaspiro[3.4]octan-2-yl)pyridazin-3-one]
12 | 7.9 | 57 | 1.57 | Cc1onc(-c2ccc(F)cc2)c1Cn1ncc(N2CCOCC2)cc1=O [Example 11, 2-((3-(4-Fluorophenyl)-5-methylisoxazol-4-yl)methyl)-5-morpholinopyridazin-3(2H)-one]
13 | 3.2 | 20 | 1.2 | Cc1onc(-c2ccc(Cl)cn2)c1Cn1ncc(N2CC3(CCCO3)C2)cc1=O [Example 144, 2-((3-(5-Chloropyridin-2-yl)-5-methylisoxazol-4-yl)methyl)-5-(5-oxa-2-azaspiro[3.4]octan-2-yl)pyridazin-3(2H)-one]
14 | 34.6 | 147 | 2.47 | Cc1ccc(-c2noc(C)c2Cn2ncc(N3CC(OCC4CC4)C3)cc2=O)cn1 [Example 111, 5-[3-(cyclopropylmethoxy)azetidin-1-yl]-2-[[5-methyl-3-(6-methyl-3-pyridyl)isoxazol-4-yl]methyl]pyridazin-3-one]
15 | 12.8 | 124 | 2.24 | Cc1onc(-c2ccc(Cl)nc2)c1Cn1ncc(N2CC(OC3CC3)C2)cc1=O [Example 224, 2-((3-(6-chloropyridin-3-yl)-5-methylisoxazol-4-yl)methyl)-5-(3-cyclopropoxyazetidin-1-yl)pyridazin-3(2H)-one]
16 | 22.9 | 110 | 2.1 | Cc1ccc(-c2noc(C)c2Cn2ncc(N(C)C3CN(C4CC4)C3)cc2=O)cn1 [Example 137, 5-((1-cyclopropylazetidin-3-yl)(methyl)amino)-2-((5-methyl-3-(6-methylpyridin-3-yl)isoxazol-4-yl)methyl)pyridazin-3(2H)-one]
17 | 3.2 | 146 | 2.46 | COc1ncccc1N1CCN(c2cnn(Cc3c(-c4ccc(C)nc4)noc3C)c(=O)c2)CC1 [Example 101, 5-[4-(2-methoxy-3-pyridyl)piperazin-1-yl]-2-[[5-methyl-3-(6-methyl-3-pyridyl)isoxazol-4-yl]methyl]pyridazin-3-one]
18 | 2 | 149 | 2.49 | Cc1ccc(-c2noc(C)c2Cn2ncc(N3CCC4(CCCCO4)CC3)cc2=O)nn1 [Example 302, 2-[[5-methyl-3-(6-methylpyridazin-3-yl)isoxazol-4-yl]methyl]-5-(1-oxa-9-azaspiro[5.5]undecan-9-yl)pyridazin-3-one]
19 | 38 | 101 | 2.01 | Cc1ccc(-c2noc(C)c2Cn2ncc(N3CC(OC(C)C)C3)cc2=O)cn1 [Example 112, 5-(3-isopropoxyazetidin-1-yl)-2-[[5-methyl-3-(6-methyl-3-pyridyl)isoxazol-4-yl]methyl]pyridazin-3-one]
20 | 6.4 | 221 | 3.21 | Cc1ccc(-c2noc(C)c2Cn2ncc(-c3cc(C)nc(C)c3)cc2=O)cn1 [Example 192, 5-(2,6-dimethylpyridin-4-yl)-2-((5-methyl-3-(6-methylpyridin-3-yl)isoxazol-4-yl)methyl)pyridazin-3(2H)-one]
21 | 16.6 | 111 | 2.11 | CO[C@H]1COC2(C1)CN(c1cnn(Cc3c(-c4ccc(C)nc4)noc3C)c(=O)c1)C2 [Example 134, 5-[(7R)-7-methoxy-5-oxa-2-azaspiro[3.4]octan-2-yl]-2-[[5-methyl-3-(6-methyl-3-pyridyl)isoxazol-4-yl]methyl]pyridazin-3-one]
22 | 4.2 | 96 | 1.96 | CNc1cc(-c2cnn(Cc3c(-c4ccc(C)nc4)noc3C)c(=O)c2)ccn1 [Example 202, 2-((5-methyl-3-(6-methylpyridin-3-yl)isoxazol-4-yl)methyl)-5-(2-(methylamino)pyridin-4-yl)pyridazin-3(2H)-one]
23 | 2.2 | 107 | 2.07 | CCc1nccn1C1CCN(c2cnn(Cc3c(-c4ccc(C)nc4)noc3C)c(=O)c2)CC1 [Example 109, 5-[4-(2-ethylimidazol-1-yl)-1-piperidyl]-2-[[5-methyl-3-(6-methyl-3-pyridyl)isoxazol-4-yl]methyl]pyridazin-3-one]

Row | Compound | Ki (h-GABA-A α5β3γ2 [1]) [nM] | Efficacy (GABA) % (h-GABA-A α5β3γ2 [2]) [%] | Fold increase h-GABA-A α5β3γ2 oocyte (h-GABA-A α5β3γ2 [2])
24 | Cc1ccc(-c2noc(C)c2Cn2ncc(N3CC(OC(C)(C)C)C3)cc2=O)nn1 [Example 234, 5-(3-(tert-butoxy)azetidin-1-yl)-2-((5-methyl-3-(6-methylpyridazin-3-yl)isoxazol-4-yl)methyl)pyridazin-3(2H)-one] | 4.4 | 93 | 1.93
25 | Cc1ccc(-c2noc(C)c2Cn2ncc(N3C4COCC3C4)cc2=O)cn1 [Example 33, 2-[[5-methyl-3-(6-methyl-3-pyridyl)isoxazol-4-yl]methyl]-5-(3-oxa-6-azabicyclo[3.1.1]heptan-6-yl)pyridazin-3-one] | 3.2 | 150 | 2.5
